Results reported in publication PMC11408249, “Non-invasive in vivo imaging of changes in Collagen III turnover in myocardial fibrosis” (npj Imaging, 2024).
Residues, ends and D or L forms follow the SMILES beside them. *: point of attachment. DOTA = O=C(O)CN1CCN(CC(=O)O)CCN(CC(=O)*)CCN(CC(=O)O)CC1

Experiments:
COL3 [1] = molecular target: T1, COL3 (Homo sapiens, UniProt P02461); settings: cited from earlier work
T1 sequence (P02461 154-1221 limits assumed): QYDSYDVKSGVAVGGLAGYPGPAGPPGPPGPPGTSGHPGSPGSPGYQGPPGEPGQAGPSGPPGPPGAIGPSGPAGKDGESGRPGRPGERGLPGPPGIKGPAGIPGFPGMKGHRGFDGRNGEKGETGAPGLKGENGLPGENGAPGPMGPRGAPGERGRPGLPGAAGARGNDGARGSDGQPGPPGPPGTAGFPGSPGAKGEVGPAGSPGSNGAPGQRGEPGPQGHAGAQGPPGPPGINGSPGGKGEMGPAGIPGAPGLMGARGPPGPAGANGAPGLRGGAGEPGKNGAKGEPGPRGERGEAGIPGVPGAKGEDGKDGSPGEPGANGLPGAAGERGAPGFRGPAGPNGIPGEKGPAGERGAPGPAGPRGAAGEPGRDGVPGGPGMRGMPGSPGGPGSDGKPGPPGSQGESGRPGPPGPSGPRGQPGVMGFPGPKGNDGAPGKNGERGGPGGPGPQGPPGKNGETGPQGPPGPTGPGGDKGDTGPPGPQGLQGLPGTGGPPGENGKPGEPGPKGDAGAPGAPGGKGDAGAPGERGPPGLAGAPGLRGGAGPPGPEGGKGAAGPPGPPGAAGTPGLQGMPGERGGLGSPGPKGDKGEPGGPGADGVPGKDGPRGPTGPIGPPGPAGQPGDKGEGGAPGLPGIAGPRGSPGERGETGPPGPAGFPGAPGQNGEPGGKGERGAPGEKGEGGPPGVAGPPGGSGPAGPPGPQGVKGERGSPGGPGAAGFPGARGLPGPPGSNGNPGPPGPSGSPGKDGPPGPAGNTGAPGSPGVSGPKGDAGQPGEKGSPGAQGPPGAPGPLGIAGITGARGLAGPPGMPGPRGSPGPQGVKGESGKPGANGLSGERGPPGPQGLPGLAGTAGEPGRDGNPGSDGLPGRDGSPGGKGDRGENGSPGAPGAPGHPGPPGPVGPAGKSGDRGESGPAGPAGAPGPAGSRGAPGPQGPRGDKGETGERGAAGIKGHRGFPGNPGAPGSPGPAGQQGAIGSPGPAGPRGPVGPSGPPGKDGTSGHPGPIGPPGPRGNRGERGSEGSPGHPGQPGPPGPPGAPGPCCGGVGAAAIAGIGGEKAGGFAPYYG
From the text: (§1) The two peptides, DARKSEVQK (Collagen Binding Probe 1, CBP1) and TEFPLRMRDWLKN (CBP2), were identified from reported protein-protein interaction studies between collagen and other proteins[41],[43]. […] The TEFPLRMRDWLKN peptide is part of the secreted protein acidic and rich cysteine (SPARC) that binds to fibrillary collagens. The binding interaction between SPARC and collagens regulates collagen fibrillogenesis ...

[2] = test system: COL3-induced platelet aggregation; settings: cited from earlier work
From the text: as §1

COL3 [3] = molecular target: T1, COL3; assay: Eu(III) time resolved fluorescence (TRF) plate binding assay on immobilised COL3; settings: immobilised COL3, probe up to 15 µM
Protocol: The protocol to assess the binding affinity of the Eu(III)-labelled collagen probes to COL3 has been optimised previously. Such an assay is based on the Eu(III) TRF which detects the amount of Eu(III)-labelled probes that bind to COL3 immobilised on a multi-well plate. The assay was used to measure the COL3 binding affinity of the monomeric Eu(III)-labelled probes (expressed as the dissociation constant, Kd). The same assay was carried out with COL1, to estimate the selectivity for COL3 binding in respect to COL1. Potential unspecific binding effects associated with the assay were investigated by using two types of control experiments: (i) the scrambled versions of the Eu(III)-labelled probes were used as negative controls in TRF plate assays with immobilised collagen (either COL3 or COL1); and (ii) the collagen specific probes were assayed against elastin and bovine serum albumin (BSA) as control non-binding proteins. Briefly, increasing concentrations of the peptide (0.1–15 µM; 70 µL per well) were incubated in 96-well microplates pre-coated with the desired protein. Triplicate readings were taken per concentration and three independent experiments (plates) were used. After incubation of the peptide with the protein for one hour, the plates were washed with PBS to remove any free (unbound) peptide. […] The plates were then read using a luminescence plate reader. […]

fractional occupancy (FO) at the highest concentration of probe (COL3 [3]) [%] | Molecule | binding affinity towards COL3 compared with COL1 (in words) (COL3 [1]) | effect on COL3-induced platelet aggregation (in words) [2]
 | DARKSEVQK [CBP1] | higher binding affinity towards COL3 than COL1 | inhibit
74 | CC(C)[C@H](NC(=O)[C@H](CCC(=O)O)NC(=O)[C@H](CO)NC(=O)[C@H](CCCCN)NC(=O)[C@H](CCCNC(=N)N)NC(=O)[C@H](C)NC(=O)[C@H](CC(=O)O)NC(=O)CN1CCN(CC(=O)O)CCN(CC(=O)O)CCN(CC(=O)O)CC1)C(=O)N[C@@H](CCC(N)=O)C(=O)N[C@@H](CCCCN)C(=O)O [Eu-DOTAMA-CBP1] ({DOTA}-DARKSEVQK-OH) |  | 
